Columns and labels:
[1] = system: platelet aggregation induced by ADP; assay: ADP-induced platelet aggregation in PRP of orally dosed rabbits (ex vivo); set-up: species or system Japanese white rabbits; conditions: ADP 3 μM, clopidogrel 20 mg/kg single oral dose; for Aggregation suppressibility: EPA-E 300 mg/kg oral once a day 4 weeks, blood 2 h after clopidogrel; for Effect on maximum aggregation rate: vs control group, EPA-E 300 mg/kg oral 4 weeks
Experimental: (§1) After the preliminary keeping, the rabbits were randomly divided into four groups, namely, control group, EPA-E group, clopidogrel group, and combination group. To the EPA-E group and the combination group, EPA-E was orally administered once a day for four weeks at a dose of 300 mg/kg. To the control group and the clopidogrel group, a 5% aqueous solution of gum arabic was orally administered instead of EPA-E. After the last EPA-E or gum arabic administration, the rabbits were fasted overnight, then clopidogrel was orally administered to the clopidogrel group and the combination group at a single dose of 20 mg/kg. To the control group and the EPA-E group, the 5% aqueous solution of gum arabic was orally administered instead of clopidogrel. Two hours after the clopidogrel administration, blood was sampled using a syringe containing citric acid in an amount of a tenth of the syringe volume, and the white blood cell count, red blood cell count, hemoglobin, hematocrit, and platelet count were measured on an automated hematology analyzer (type F-820 from Sysmex Corporation). The blood was centrifuged (at 150×g and at room temperature for 15 minutes) immediately after the above measurement to obtain platelet-rich plasma (PRP). The PRP was further centrifuged (at 1,500×g and at room temperature for 15 minutes) to collect platelet-poor plasma (PPP), and the platelet count was regulated with the PRP and PPP so that it might be […] (final level). The PRP was kept at 37° C. for four minutes, then an ADP (adenosine 5′-diphosphate) solution with a final concentration of 3 μM (MC Medical, Inc.) or a collagen solution with a final concentration of 6 μg/mL (Nycomed) was added thereto as an aggregation inducer so as to observe platelet aggregation using a platelet aggregation analyzer (MCM HEMA TRACER 313M from MC Medical, Inc.). The platelet aggregation activity was evaluated on the basis of maximum aggregation rate, and the suppressibility of platelet aggregation was calculated according to the following equation.
(§2) Aggregation suppressibility (%)={[maximum aggregation rate (mean) in control group]−[maximum aggregation rate (mean) in experimental group]}/[maximum aggregation rate (mean) in control group]×100.
(§3) The measurement results set forth for each group are each the mean of the values obtained in 8 or 9 cases plus/minus a standard error. The results were compared between the groups using the Tukey-Kramer method for multiple comparison testing, and the statistical significance was confirmed below a set level of 5%.

[2] = system: platelet aggregation induced by collagen; assay: Collagen-induced platelet aggregation in PRP of orally dosed rabbits (ex vivo); set-up: species or system Japanese white rabbits; conditions: collagen 6 μg/mL, clopidogrel 20 mg/kg single oral dose; for Effect on maximum aggregation rate: EPA-E 300 mg/kg oral 4 weeks; for Aggregation suppressibility: EPA-E 300 mg/kg oral once a day 4 weeks, blood 2 h after clopidogrel
Experimental: as §1, §2, §3

[3] = Prothrombin time (PT) in platelet-poor plasma; format: in vivo, Japanese white rabbits; conditions: vs control group; EPA-E 300 mg/kg oral 4 weeks, clopidogrel 20 mg/kg single oral dose
Experimental: (§4) After the preliminary keeping, the rabbits were randomly divided into four groups, namely, control group, EPA-E group, clopidogrel group, and combination group. To the EPA-E group and the combination group, EPA-E was orally administered once a day for four weeks at a dose of 300 mg/kg. To the control group and the clopidogrel group, a 5% aqueous solution of gum arabic was orally administered instead of EPA-E. After the last EPA-E or gum arabic administration, the rabbits were fasted overnight, then clopidogrel was orally administered to the clopidogrel group and the combination group at a single dose of 20 mg/kg. […] Two hours after the clopidogrel administration, blood was sampled using a syringe containing citric acid in an amount of a tenth of the syringe volume, and the white blood cell count, red blood cell count, hemoglobin, hematocrit, and platelet count were measured on an automated hematology analyzer (type F-820 from Sysmex Corporation). […] The platelet aggregation activity was evaluated on the basis of maximum aggregation rate, and the suppressibility of platelet aggregation was calculated according to the following equation. Platelet-poor plasma (PPP) was measured in terms of prothrombin time (PT) and activated partial thromboplastin time (APTT) as coagulation-related parameters. […]

[4] = Activated partial thromboplastin time (APTT) in platelet-poor plasma; format: in vivo, Japanese white rabbits; conditions: vs control group; EPA-E 300 mg/kg oral 4 weeks, clopidogrel 20 mg/kg single oral dose
Experimental: as §4

[5] = Bleeding time, ear puncture wound (method of Elg et al.); format: in vivo, Japanese white rabbits; conditions: rabbit ear puncture; EPA-E 300 mg/kg oral 4 weeks, clopidogrel 20 mg/kg single oral dose
[6] = Hematological parameters on automated hematology analyzer; format: in vivo, Japanese white rabbits; conditions: for Hematocrit / Hemoglobin / Platelet count / Red blood cell count / White blood cell count: mean ± standard error, blood 2 h after clopidogrel, EPA-E 300 mg/kg 4 weeks, clopidogrel 20 mg/kg; for Change of white blood cell count, red blood cell count, hemoglobin, hematocrit and platelet count: vs control group
Experimental: After the preliminary keeping, the rabbits were randomly divided into four groups, namely, control group, EPA-E group, clopidogrel group, and combination group. To the EPA-E group and the combination group, EPA-E was orally administered once a day for four weeks at a dose of 300 mg/kg. To the control group and the clopidogrel group, a 5% aqueous solution of gum arabic was orally administered instead of EPA-E. After the last EPA-E or gum arabic administration, the rabbits were fasted overnight, then clopidogrel was orally administered to the clopidogrel group and the combination group at a single dose of 20 mg/kg. To the control group and the EPA-E group, the 5% aqueous solution of gum arabic was orally administered instead of clopidogrel. Two hours after the clopidogrel administration, blood was sampled using a syringe containing citric acid in an amount of a tenth of the syringe volume, and the white blood cell count, red blood cell count, hemoglobin, hematocrit, and platelet count were measured on an automated hematology analyzer (type F-820 from Sysmex Corporation). The blood was centrifuged (at 150×g and at room temperature for 15 minutes) immediately after the above measurement to obtain platelet-rich plasma (PRP). […] The platelet aggregation activity was evaluated on the basis of maximum aggregation rate, and the suppressibility of platelet aggregation was calculated according to the following equation. The measurement results set forth for each group are each the mean of the values obtained in 8 or 9 cases plus/minus a standard error. The results were compared between the groups using the Tukey-Kramer method for multiple comparison testing, and the statistical significance was confirmed below a set level of 5%.

| Structure (SMILES) | Aggregation suppressibility [1] [%] | Effect on maximum aggregation rate [1] | Effect on maximum aggregation rate [2] | Aggregation suppressibility [2] [%] | PT (prothrombin time) change [3] | APTT (activated partial thromboplastin time) change [4] | Effect on bleeding time [5] | Hematocrit [6] [%] | Hemoglobin [6] [g/dL] | Platelet count [6] | Red blood cell count [6] | White blood cell count [6] | Change of white blood cell count, red blood cell count, hemoglobin, hematocrit and platelet count [6] |
| --- | --- | --- | --- | --- | --- | --- | --- | --- | --- | --- | --- | --- | --- |
| CC/C=C\C/C=C\C/C=C\C/C=C\C/C=C\CCCC(=O)OCC [EPA-E, ethyl icosapentate] | 0 | had no influence on the maximum aggregation rate | reduced the maximum aggregation rate significantly in a statistical sense | 29 | neither PT (prothrombin time) nor APTT (activated partial thromboplastin time) had a statistically significant change | neither PT (prothrombin time) nor APTT (activated partial thromboplastin time) had a statistically significant change | had no influence on the bleeding time | 37.3 ± 0.6 | 13.1 ± 0.2 | 30.4 ± 1.2 ×10^4/μL | 563 ± 10 ×10^4/μL | 58.8 ± 5.2 ×10^2/μL | had not a statistically significant change |
| COC(=O)[C@H](c1ccccc1Cl)N1CCc2sccc2C1 [clopidogrel, (+)-(s)-methyl 2-(2-chlorophenyl)-2-(4,5,6,7-tetrahydrothieno[3,2-c]pyridin-5-yl) acetate monosulfate] | 29 | reduced the maximum aggregation rate | no differences were seen which were statistically significant | 7 | neither PT (prothrombin time) nor APTT (activated partial thromboplastin time) had a statistically significant change | neither PT (prothrombin time) nor APTT (activated partial thromboplastin time) had a statistically significant change | prolonged the bleeding time significantly in a statistical sense | 39.3 ± 1.2 | 13.8 ± 0.4 | 38.0 ± 2.3 ×10^4/μL | 584 ± 17 ×10^4/μL | 58.0 ± 4.8 ×10^2/μL | had not a statistically significant change |

Reference: patent US20100113506A1, “COMPOSITION FOR PREVENTING OR TREATING THROMBUS- OR EMBOLUS- ASSOCIATED DISEASE” (priority 2007, published 2010)
